This passage reports EC50 results from US10800772B2 (Gilead Sciences, Inc., priority 2016, dated 2020).

Where two headings read alike, the source gives them in different places.

Common to all, as to assay type: cell-based, HIV-1
For one assay, the system named is HIV-IIIb (wildtype). The assay is described as follows: Antiviral assay in MT4 cells, HIV-IIIb wildtype. The conditions noted are these: read-out: WT EC50. The method in brief:
(§1)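 MT4 cells were pre-infected 3 h at 37 °C with HIV-IIIb (0.004 m.o.i.): wildtype, or IN T174I virus from breakthrough or from dose-escalation passaging. Cells (2000/well) were exposed to 10-point 3-fold compound dilutions in quadruplicate for 5 days at 37 °C. EC50 was the concentration giving 50% decrease in CellTiter-Glo luminescence.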

The test system of another assay is HIV-IIIb IN T174I DE. The assay is described as follows: Antiviral assay in MT4 cells, HIV-IIIb IN T174I DE virus (from dose escalation passaging). The method in brief: as §1
Another assay concerns HIV-IIIb IN T174I BT. Put plainly: Antiviral assay in MT4 cells, HIV-IIIb IN T174I BT virus (from viral breakthrough). In outline:
as §1

Where [1] appears, read: Human immunodeficiency virus 1, IIIB, MT4, 120 h.
Setting [2] is: Human immunodeficiency virus 1, IIIB, MT4, 120 h, read-out: T174I DE EC50, MT4 cells, HIV-IIIb IN T174I DE (dose escalation), 5 days, CellTiter-Glo.
The mark [3] stands for this setting: Human immunodeficiency virus 1, IIIB, MT4, 120 h, read-out: T174I BT EC50, MT4 cells, HIV-IIIb IN T174I BT (viral breakthrough), 5 days, CellTiter-Glo.

For the compound `[2H]C([2H])([2H])n1nc(C2CCN(C3CN(C(C)=O)C3)CC2)c2nc(-c3nc4cc(C)c([C@H](OC(C)(C)C)C(=O)O)c(-c5ccc(Cl)cc5)c4s3)ccc21` [Compound 192, (S)-2-(2-(3-(1-(1-acetylazetidin-3-yl)piperidin-4-yl)-1-(methyl-d3)-1H-pyrazolo [4,3-b]pyridin-5-yl)-7-(4-chloro-phenyl)-5-methylbenzo[d]thiazol-6-yl)-2-(tert-butoxy) acetic acid], the figures for the EC50 in the assay with HIV-IIIb (wildtype) (setting [1]), with HIV-IIIb IN T174I DE (setting [2]) and in the assay on HIV-IIIb IN T174I BT (setting [3]) were 1 nM, 55 nM and 28 nM, respectively.

Turning to `CC(=O)N1CC[C@@H](N2CCC(c3nn(C)c4ccc(-c5nc6cc(C)c([C@H](OC(C)(C)C)C(=O)O)c(-c7ccc(Cl)cc7)c6s5)cc34)CC2)C1` [Compound 12, (S)-2-(2-(3-(1-((R)-1-acetylpyrrolidin-3-yl)piperidin-4-yl)-1-methyl-1H-indazol-5-yl)-7-(4-chlorophenyl)-5-methylbenzo[d]thiazol-6-yl)-2-(tert-butoxy)acetic Acid], the results for the 50% effective concentration (EC50) with HIV-IIIb (wildtype) (setting [1]), in the assay on HIV-IIIb IN T174I DE (setting [2]) and in the assay with HIV-IIIb IN T174I BT (setting [3]) were 10 nM, 138 nM and 81 nM, respectively.

For `Cc1cc2nc(-c3ccc4c(c3)c(C3CCN(C5COC5)CC3)nn4C3CC3)sc2c(-c2ccc(Cl)cc2)c1[C@H](OC(C)(C)C)C(=O)O` [Compound 38, (S)-2-(tert-butoxy)-2-(7-(4-chlorophenyl)-2-(1-cyclopropyl-3-(1-(oxetan-3-yl)piperidin-4-yl)-1H-indazol-5-yl)-5-methylbenzo[d]thiazol-6-yl)acetic acid], the EC50 in the assay with HIV-IIIb (wildtype) (setting [1]) amounted to 8 nM; in the assay with HIV-IIIb IN T174I DE (setting [2]), 349 nM; in the assay with HIV-IIIb IN T174I BT (setting [3]), 293 nM.

For `CO[C@@H]1CCN(c2nn(C)c3ccc(-c4nc5cc(C)c([C@H](OC(C)(C)C)C(=O)O)c(-c6ccc(Cl)cc6)c5s4)cc23)C1` [Compound 140, (S)-2-(tert-butoxy)-2-(7-(4-chloro-phenyl)-2-(3-((R)-3-methoxy-pyrrolidin-1-yl)-1-methyl-1H-indazol-5-yl)-5-methylbenzo[d]thiazol-6-yl) acetic acid], the values for the EC50 with HIV-IIIb (wildtype) (setting [1]), in the assay with HIV-IIIb IN T174I DE (setting [2]) and in the assay on HIV-IIIb IN T174I BT (setting [3]) were 29 nM, 2630 nM and 2370 nM, respectively.

With `CC(=O)N1CC(N2CCC(c3nn(C(F)F)c4ccc(-c5nc6cc(C)c([C@H](OC(C)(C)C)C(=O)O)c(-c7ccc(Cl)cc7)c6s5)cc34)CC2)C1` [Compound 43, (S)-2-(2-(3-(1-(1-acetylazetidin-3-yl)piperidin-4-yl)-1-(difluoromethyl)-1H-indazol-5-yl)-7-(4-chlorophenyl)-5-methylbenzo[d]thiazol-6-yl)-2-(tert-butoxy)acetic acid], the concentration giving a half-maximal response (EC50) came to 26 nM in the assay on HIV-IIIb (wildtype) (setting [1]), 409 nM in the assay with HIV-IIIb IN T174I DE (setting [2]) and 313 nM in the assay with HIV-IIIb IN T174I BT (setting [3]).

On to `Cc1cc2nc(-c3cnc4c(c3)c(C3=CCN(C)CC3)cn4C)sc2c(-c2ccc(Cl)cc2)c1[C@H](OC(C)(C)C)C(=O)O` [Compound 105, (S)-2-(tert-butoxy)-2-(7-(4-chlorophenyl)-5-methyl-2-(1-methyl-3-(1-methyl-1,2,3,6-tetrahydropyridin-4-yl)-1H-pyrrolo[2,3-b]pyridin-5-yl)benzo[d]thiazol-6-yl)acetic acid], for which the values for the 50% effective concentration (EC50) with HIV-IIIb (wildtype) (setting [1]), in the assay on HIV-IIIb IN T174I DE (setting [2]) and in the assay with HIV-IIIb IN T174I BT (setting [3]) were 35 nM, 2290 nM and 1460 nM, respectively.

With `Cc1cc2nc(-c3ccc4c(c3)c(N3CCN(C)C(=O)C3)nn4C)sc2c(-c2ccc(Cl)cc2)c1[C@H](OC(C)(C)C)C(=O)O` [Compound 85, (S)-2-(tert-butoxy)-2-(7-(4-chlorophenyl)-5-methyl-2-(1-methyl-3-(4-methyl-3-oxopiperazin-1-yl)-1H-indazol-5-yl)benzo[d]thiazol-6-yl)acetic acid], the concentration giving a half-maximal response (EC50) with HIV-IIIb (wildtype) (setting [1]) stood at 57 nM; in the assay with HIV-IIIb IN T174I DE (setting [2]) it was 1170 nM; in the assay with HIV-IIIb IN T174I BT (setting [3]), 1350 nM.

On to `Cc1cc2nc(-c3ccc4c(n3)c(C3CCN(C5CN(C(=O)OC(C)C)C5)CC3)nn4C)sc2c(-c2ccc(Cl)cc2)c1[C@H](OC(C)(C)C)C(=O)O` [Compound 168, (S)-2-(tert-butoxy)-2-(7-(4-chloro-phenyl)-2-(3-(1-(1-(isopropoxy-carbonyl)azetidin-3-yl)piperidin-4-yl)-1-methyl-1H-pyrazolo[4,3-b]pyridin-5-yl)-5-methylbenzo[d]thiazol-6-yl) acetic acid], for which the results for the EC50 in the assay with HIV-IIIb (wildtype) (setting [1]), in the assay with HIV-IIIb IN T174I DE (setting [2]) and in the assay with HIV-IIIb IN T174I BT (setting [3]) were 11 nM, 456 nM and 230 nM, respectively.

For the compound `COC(=O)N1CC(N2CCC(c3cnn4ccc(-c5nc6cc(C)c([C@H](OC(C)(C)C)C(=O)O)c(-c7ccc(Cl)cc7)c6s5)nc34)CC2)C1` [Compound 110, (S)-2-(tert-butoxy)-2-(7-(4-chlorophenyl)-2-(3-(1-(1-(methoxycarbonyl)azetidin-3-yl)piperidin-4-yl)pyrazolo[1,5-a]pyrimidin-5-yl)-5-methylbenzo[d]thiazol-6-yl)acetic acid], the EC50 is 2 nM with HIV-IIIb (wildtype) (setting [1]), 559 nM in the assay with HIV-IIIb IN T174I DE (setting [2]) and 198 nM with HIV-IIIb IN T174I BT (setting [3]).

With `Cc1cc2nc(-c3cnc4c(n3)c(C3CCN(C5COC5)CC3)nn4C)sc2c(-c2ccc(Cl)cc2)c1[C@H](OC(C)(C)C)C(=O)O` [Compound 118, (S)-2-(tert-butoxy)-2-(7-(4-chlorophenyl)-5-methyl-2-(1-methyl-3-(1-(oxetan-3-yl)piperidin-4-yl)-1H-pyrazolo[3,4-b]pyrazin-5-yl)benzo[d]thiazol-6-yl)acetic acid], the results for the 50% effective concentration (EC50) in the assay on HIV-IIIb (wildtype) (setting [1]), in the assay with HIV-IIIb IN T174I DE (setting [2]) and in the assay on HIV-IIIb IN T174I BT (setting [3]) were 4 nM, 737 nM and 298 nM, respectively.

In the case of `CCn1nc(C2CCN(C3CN(C(C)=O)C3)CC2)c2nc(-c3nc4cc(C)c([C@H](OC(C)(C)C)C(=O)O)c(-c5ccc(Cl)cc5)c4s3)ccc21` [Compound 181, (S)-2-(2-(3-(1-(1-acetylazetidin-3-yl)piperidin-4-yl)-1-ethyl-1H-pyrazolo[4,3-b]pyridin-5-yl)-7-(4-chlorophenyl)-5-methylbenzo [d]thiazol-6-yl)-2-(tert-butoxy) acetic acid], the concentration giving a half-maximal response (EC50) was 1 nM in the assay on HIV-IIIb (wildtype) (setting [1]), 34 nM with HIV-IIIb IN T174I DE (setting [2]) and 12 nM in the assay on HIV-IIIb IN T174I BT (setting [3]).

On to `CCn1nc(C2CCN([C@@H]3CCN(C(=O)OC)C3)CC2)c2cc(-c3nc4cc(C)c([C@H](OC(C)(C)C)C(=O)O)c(-c5ccc(Cl)cc5)c4s3)ccc21` [Compound 50, (S)-2-(tert-butoxy)-2-(7-(4-chlorophenyl)-2-(1-ethyl-3-(1-((R)-1-(methoxycarbonyl)pyrrolidin-3-yl)piperidin-4-yl)-1H-indazol-5-yl)-5-methylbenzo[d]thiazol-6-yl)acetic Acid], for which the EC50 with HIV-IIIb (wildtype) (setting [1]) is 4 nM; in the assay on HIV-IIIb IN T174I DE (setting [2]) it was 276 nM; in the assay with HIV-IIIb IN T174I BT (setting [3]), 74 nM.

For the compound `CCN1CCC(c2nn(C)c3ccc(-c4nc5cc(C)c([C@H](OC(C)(C)C)C(=O)O)c(-c6ccc(Cl)cc6)c5s4)cc23)CC1` [Compound 126, (S)-2-(tert-butoxy)-2-(7-(4-chloro-phenyl)-2-(3-(1-ethylpiperidin-4-yl)-1-methyl-1H-indazol-5-yl)-5-methylbenzo[d]thiazol-6-yl) acetic acid], the EC50 with HIV-IIIb (wildtype) (setting [1]) amounted to 8 nM; in the assay on HIV-IIIb IN T174I DE (setting [2]), 540 nM; in the assay on HIV-IIIb IN T174I BT (setting [3]) it was 551 nM.

With `CC(=O)N1CC[C@H](N2CCC(c3nn(C)c4ccc(-c5nc6cc(C)c([C@H](OC(C)(C)C)C(=O)O)c(-c7ccc(Cl)cc7)c6s5)cc34)CC2)C1` [Compound 11, (S)-2-(2-(3-(1-((S)-1-acetylpyrrolidin-3-yl)piperidin-4-yl)-1-methyl-1H-indazol-5-yl)-7-(4-chlorophenyl)-5-methylbenzo[d]thiazol-6-yl)-2-(tert-butoxy)acetic Acid], the EC50 in the assay with HIV-IIIb (wildtype) (setting [1]) was 8 nM; with HIV-IIIb IN T174I DE (setting [2]), 166 nM; in the assay with HIV-IIIb IN T174I BT (setting [3]) it was 85 nM.

For the compound `CN[C@@H]1CCN(c2nn(C)c3ccc(-c4nc5cc(C)c([C@H](OC(C)(C)C)C(=O)O)c(-c6ccc(Cl)cc6)c5s4)cc23)C1` [Compound 95, (S)-2-(tert-butoxy)-2-(7-(4-chlorophenyl)-5-methyl-2-(1-methyl-3-((R)-3-(methylamino)pyrrolidin-1-yl)-1H-indazol-5-yl)benzo[d]thiazol-6-yl)acetic acid], the figures for the concentration giving a half-maximal response (EC50) with HIV-IIIb (wildtype) (setting [1]), in the assay on HIV-IIIb IN T174I DE (setting [2]) and in the assay with HIV-IIIb IN T174I BT (setting [3]) were 41 nM, 11500 nM and 1750 nM, respectively.

As for “(S)-2-(tert-butoxy)- 2-(7-(4-chloro- phenyl)-2-(3-(1- ((S)-1-(methoxy- carbonyl) pyrrolidin- 3-yl)piperidin-4- yl)-1-methyl-1H- pyrrolo[2,3-b] pyridin-5-yl)-5- methylbenzo[d] thiazol-6-yl) acetic acid [Compound 202]”, the EC50 in the assay on HIV-IIIb (wildtype) (MT4 cells, HIV-IIIb wildtype, 5 days, CellTiter-Glo) came to 7 nM; in the assay with HIV-IIIb IN T174I DE (MT4 cells, HIV-IIIb IN T174I DE (dose escalation), 5 days, CellTiter-Glo, read-out: T174I DE EC50), 680 nM; in the assay with HIV-IIIb IN T174I BT (MT4 cells, HIV-IIIb IN T174I BT (viral breakthrough), 5 days, CellTiter-Glo, read-out: T174I BT EC50), 157 nM.

As to `CO[C@H]1CCN(c2nn(C)c3ccc(-c4nc5cc(C)c([C@H](OC(C)(C)C)C(=O)O)c(-c6ccc(Cl)cc6)c5s4)cc23)C1` [Compound 139, (S)-2-(tert-butoxy)-2-(7-(4-chloro-phenyl)-2-(3-((S)-3-methoxy-pyrrolidin-1-yl)-1-methyl-1H-indazol-5-yl)-5-methylbenzo[d]thiazol-6-yl) acetic acid], the results for the 50% effective concentration (EC50) in the assay with HIV-IIIb (wildtype) (setting [1]), with HIV-IIIb IN T174I DE (setting [2]) and in the assay on HIV-IIIb IN T174I BT (setting [3]) were 88 nM, 5780 nM and 7810 nM, respectively.

One may read the EC50 as the concentration at which the effect is half-maximal.
